# Assay results from ChEMBL document CHEMBL3638859, “Aryl benzylamine compounds” (2014).
# Target: Sphingosine 1-phosphate receptor 1 (Homo sapiens, UniProt P21453)
# Experiment: Receptor Calcium FLIPR Antagonist Assay: The assay measures intracellular changes of Ca2+ mediated by the synthetic probing agonist 3-{[2-(2-Trifluoromethyl-biphenyl-4-yl)-benzo[b]thiophen-5-ylmethyl]-amino}-propionic acid (GNF-AC-1) in the HeLa-S1P1/Galpha16 cell clone 1: HeLa (human cervix carcinoma, ATCC CCL2) cells stably expressing N-terminally myc-tagged human S1P1 receptors (GenBank accession No. NM001400; UNIPROT P21453) and promiscuous Galpha16 protein (GenBank accession number M63904, Swissprot P30679) are cultured at 37 C., 5% CO2, and 95% relative humidity. The cells are plated in 384 well black plates (10'000 cells per well). After 24 hours the cells are loaded with Fluo-4-AM (1.6 uM in HBSS and 2.5 mM probenicid) for 1 hour at 37 C. After washing, the cells are transferred to the FLIPR. The test compounds are added at different concentrations (<=100 uM) in HBSS in the presence of 0.1% BSA and changes in fluorescence are recorded (indication of agonism).
# Assay type: functional, cell-based
# Sequence of Sphingosine 1-phosphate receptor 1 (P21453 whole entry): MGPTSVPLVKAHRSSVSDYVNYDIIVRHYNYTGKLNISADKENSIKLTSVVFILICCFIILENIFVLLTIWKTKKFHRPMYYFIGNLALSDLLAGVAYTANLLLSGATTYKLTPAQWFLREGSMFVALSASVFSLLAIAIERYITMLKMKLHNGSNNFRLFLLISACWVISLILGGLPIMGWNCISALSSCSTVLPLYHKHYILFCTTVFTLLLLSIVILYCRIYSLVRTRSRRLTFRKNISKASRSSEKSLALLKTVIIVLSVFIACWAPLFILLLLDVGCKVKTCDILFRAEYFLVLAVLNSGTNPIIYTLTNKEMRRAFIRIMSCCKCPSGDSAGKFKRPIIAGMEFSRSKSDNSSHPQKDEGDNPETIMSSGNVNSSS
row,IC50,SMILES
1,0.1 nM,Cc1cc([C@H](Nc2ccc(F)c(CN3CC(C(=O)O)C3)c2)C(F)(F)F)ccc1Cl
2,2.4 nM,CC[C@@H](Nc1ccc(Cl)c(CNCCC(=O)O)c1)c1cc(C)c(Cl)c(C)c1
